Literature values as cited in patent US11975103B2, “Compositions of midodrine and methods of using the same” (XENAMED CORP., priority 2016, dated 2024).

What was measured:
[1] = test system: patients with neurogenic orthostatic hypotension
[2] = after oral administration of an immediate release tablet

solubility in water	half-life [2]	time to peak plasma levels [2]	SMILES	standing systolic blood pressure [1]
soluble in water	–	–	COc1ccc(OC)c(C(O)CNC(=O)CN)c1.Cl (racemic) [Midodrine hydrochloride, (±)-2-amino-N-[2-(2,5-dimethoxyphenyl)-2-hydroxyethyl]acetamide monohydrochloride]	significantly increases
–	approximately 25 minutes	about 30 minutes	COc1ccc(OC)c(C(O)CNC(=O)CN)c1 (stereo not shown) [midodrine]	–
